Data published in the supplement of paper PMC4862054.

What was measured:
Conditions in all cases: incubation time: 72 h
CAL-120 [1] = experiment: normalised response (% of control), CellTox Green; higher = less cell death (100 = DMSO, 0 = benzethonium chloride kill control)
Method in brief: (§1)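 Two readouts were taken after 72 h: CellTox Green fluorescence (485/520 nm) first, then CellTiter-Glo luminescence after 10 min at room temperature. Breast cancer cell lines had been seeded as 20 µl suspension into 384-well plates holding compound at 5 concentrations in 10-fold steps across a compound-specific 10,000-fold range. Each value is a normalised signal at a single concentration, with plates scaled to 0.1 % DMSO (100) and a positive kill control (0).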

MDA-MB-231 [2] = experiment: as above
Method in brief: as §1

MDA-MB-468 [3] = experiment: as above
Method in brief: as §1

MDA-MB-436 [4] = experiment: as above
Method in brief: as §1

MCF-10A [5] = experiment: as above
Method in brief: as §1

CAL-51 [6] = experiment: as above
Method in brief: as §1

BT-549 [7] = experiment: as above
Method in brief: as §1

MDA-MB-453 [8] = experiment: as above
Method in brief: as §1

DU-4475 [9] = experiment: as above
Method in brief: as §1

HCC1599 [10] = experiment: as above
Method in brief: as §1

BT-474 [11] = experiment: as above
Method in brief: as §1

HCC1937 [12] = experiment: as above
Method in brief: as §1

HDQ-P1 [13] = experiment: as above
Method in brief: as §1

CAL-85-1 [14] = experiment: as above
Method in brief: as §1

Hs578T [15] = experiment: as above
Method in brief: as §1

CAL-148 [16] = experiment: as above
Method in brief: as §1

HCC1143 [17] = experiment: as above
Method in brief: as §1

MFM-223 [18] = experiment: as above
Method in brief: as §1

CAL-120 [19] = experiment: normalised response (% of control), CellTiter-Glo; higher = more viable cells (100 = DMSO, 0 = benzethonium chloride kill control)
Method in brief: as §1

MDA-MB-231 [20] = experiment: as above
Method in brief: as §1

MDA-MB-468 [21] = experiment: as above
Method in brief: as §1

MDA-MB-436 [22] = experiment: as above
Method in brief: as §1

MCF-10A [23] = experiment: as above
Method in brief: as §1

CAL-51 [24] = experiment: as above
Method in brief: as §1

SK-BR-3 = experiment: as above
Method in brief: as §1

BT-549 [25] = experiment: as above
Method in brief: as §1

MDA-MB-453 [26] = experiment: as above
Method in brief: as §1

DU-4475 [27] = experiment: as above
Method in brief: as §1

HCC1599 [28] = experiment: as above
Method in brief: as §1

BT-474 [29] = experiment: as above
Method in brief: as §1

HCC1937 [30] = experiment: as above
Method in brief: as §1

HDQ-P1 [31] = experiment: as above
Method in brief: as §1

CAL-85-1 [32] = experiment: as above
Method in brief: as §1

Hs578T [33] = experiment: as above
Method in brief: as §1

CAL-148 [34] = experiment: as above
Method in brief: as §1

HCC1143 [35] = experiment: as above
Method in brief: as §1

MFM-223 [36] = experiment: as above
Method in brief: as §1

| SMILES | normalised response (CAL-120 [1]) [%] | normalised response (MDA-MB-231 [2]) [%] | normalised response (MDA-MB-468 [3]) [%] | normalised response (MDA-MB-436 [4]) [%] | normalised response (MCF-10A [5]) [%] | normalised response (CAL-51 [6]) [%] | normalised response (BT-549 [7]) [%] | normalised response (MDA-MB-453 [8]) [%] | normalised response (DU-4475 [9]) [%] | normalised response (HCC1599 [10]) [%] | normalised response (BT-474 [11]) [%] | normalised response (HCC1937 [12]) [%] | normalised response (HDQ-P1 [13]) [%] | normalised response (CAL-85-1 [14]) [%] | normalised response (Hs578T [15]) [%] | normalised response (CAL-148 [16]) [%] | normalised response (HCC1143 [17]) [%] | normalised response (MFM-223 [18]) [%] | normalised response (CAL-120 [19]) [%] | normalised response (MDA-MB-231 [20]) [%] | normalised response (MDA-MB-468 [21]) [%] | normalised response (MDA-MB-436 [22]) [%] | normalised response (MCF-10A [23]) [%] | normalised response (CAL-51 [24]) [%] | normalised response (SK-BR-3) [%] | normalised response (BT-549 [25]) [%] | normalised response (MDA-MB-453 [26]) [%] | normalised response (DU-4475 [27]) [%] | normalised response (HCC1599 [28]) [%] | normalised response (BT-474 [29]) [%] | normalised response (HCC1937 [30]) [%] | normalised response (HDQ-P1 [31]) [%] | normalised response (CAL-85-1 [32]) [%] | normalised response (Hs578T [33]) [%] | normalised response (CAL-148 [34]) [%] | normalised response (HCC1143 [35]) [%] | normalised response (MFM-223 [36]) [%] |
| --- | --- | --- | --- | --- | --- | --- | --- | --- | --- | --- | --- | --- | --- | --- | --- | --- | --- | --- | --- | --- | --- | --- | --- | --- | --- | --- | --- | --- | --- | --- | --- | --- | --- | --- | --- | --- | --- |
| COc1ccc(-c2ccc3c(N4CCOC[C@@H]4C)nc(N4CCOC[C@@H]4C)nc3n2)cc1CO [AZD8055] (1000 nM) | 96 | 87.4 | 118 | 92.4 | 91.7 | 80.1 | 116 | 104 | 83.3 | 94.2 | 86.1 | 56.8 | 103 | 87.8 | 102 | 39.6 | 74.1 | 93.6 | 18 | 36.5 | 23.6 | 45.8 | 27.8 | 20.3 | 20.3 | 21.5 | 31.3 | 23.2 | 67.2 | 46.6 | 45.7 | 32.3 | 25.3 | 29.4 | 13.9 | 24.2 | 27.6 |
| CN1CCN(CCOc2cc(OC3CCOCC3)c3c(Nc4c(Cl)ccc5c4OCO5)ncnc3c2)CC1 [Saracatinib] (1000 nM) | 96.6 | 77.6 | 181 | 77.6 | 106 | 68.5 | 93 | 101 | 98.9 | 96 | 96.4 | 86.5 | 86.8 | 68.5 | 83.4 | 99.3 | 76.8 | 93.9 | 81.9 | 64.6 | 79.2 | 93.9 | 41.5 | 74.3 | 92.7 | 89.9 | 88.2 | 94 | 119 | 71.1 | 83.3 | 53.2 | 61.7 | 96.1 | 84.1 | 74.6 | 89.7 |
| CC[C@]1(O)C[C@H]2CN(CCc3c([nH]c4ccccc34)[C@@](C(=O)OC)(c3cc4c(cc3OC)N(C=O)[C@H]3[C@@](O)(C(=O)OC)[C@H](OC(C)=O)[C@]5(CC)C=CCN6CC[C@]43[C@@H]65)C2)C1 [Vincristine] (100 nM) | 86.3 | 3.37 | 38.5 | 73.6 | -44.4 | 40.1 | 44.2 | 97.3 | 100 | 82.2 | 75.3 | 62.1 | 93 | 69.3 | 62.5 | 82.8 | 94.3 | 15.3 | 63.2 | 53.2 | 32.9 | 28.6 | 72.7 | 46.3 | 13.6 | 42.1 | 57.9 | 71.1 | 21.6 | 58.5 | 72.8 | 79.3 | 40.8 | 24.1 | 47.8 | 60.9 | 45.8 |
| C/C(=C\c1csc(C)n1)[C@@H]1C[C@@H]2O[C@]2(C)CCC[C@H](C)[C@H](O)[C@@H](C)C(=O)C(C)(C)[C@@H](O)CC(=O)O1 [Patupilone] (100 nM) | 77.9 | 65.7 | -2.53 | 40.1 | 77.1 | 36.3 | 90.3 | 93.6 | 94.5 | 95.6 | 58.5 | 81.2 | 71.9 | 38.6 | 96.1 | 50.5 | 103 | 84.1 | 71.4 | 73 | 26.2 | 35.4 | 61.4 | 24.4 | 17.4 | 16.3 | 71.8 | 72.4 | 102 | 75.1 | 75.9 | 74.6 | 25.8 | 39.6 | 37.4 | 42.8 | 86.8 |
| COc1ccccc1S(=O)(=O)Nc1ccc2c(c1)CN(C)C(=O)N2 [PFI-1] (1000 nM) | 111 | 105 | 140 | 115 | 105 | 116 | 111 | 121 | 107 | 110 | 98.7 | 91.9 | 109 | 121 | 98.2 | 103 | 95 | 87.8 | 91.3 | 89.2 | 95 | 93.9 | 98.6 | 87.7 | 103 | 76.9 | 91.1 | 97.7 | 86.7 | 89.8 | 90.9 | 91.9 | 87 | 85 | 107 | 94.1 | 97.8 |
| CC(C)(C#N)c1cc(Cn2cncn2)cc(C(C)(C)C#N)c1 [Anastrozole] (1000 nM) | 101 | 104 | 85.1 | 103 | 105 | 113 | 106 | 96.5 | 100 | 102 | 99.8 | 106 | 111 | 110 | 62.7 | 93.9 | 61.9 | 101 | 96.7 | 106 | 106 | 100 | 105 | 122 | 108 | 99.2 | 96.9 | 98.2 | 123 | 104 | 94.5 | 96.5 | 103 | 103 | 93.3 | 101 | 105 |
| Cn1c(=O)n(-c2ccc(C(C)(C)C#N)cc2)c2c3cc(-c4cnc5ccccc5c4)ccc3ncc21 [Dactolisib] (100 nM) | 89.3 | 108 | 134 | 110 | 108 | 104 | 134 | 98 | 94.5 | 103 | 104 | 65 | 109 | 94.4 | 108 | 72.8 | 109 | 99.3 | 29.1 | 50.4 | 39 | 62 | 45.2 | 31.7 | 30 | 23.8 | 38.8 | 41 | 80.4 | 62.1 | 57.3 | 52.7 | 39.9 | 35.2 | 30.4 | 45.5 | 39.1 |
